How the values were obtained:
[1] = tested on: air-way resistance in guinea pigs; experiment: Bronchodilating activity: inhibition of histamine-induced increase in air-way resistance (variant Konzett-Rossler method); assay type: in vivo, guinea pig; conditions: Cavia porcellus; intravenous (method; head prints i.r.); histamine 2 - 3 μg/kg i.v.; parentheses = 95% confidence limit; read-out: 50% Inhibition Dose (ID50) of increase of air-way resistance in guinea pigs
Procedure: The test compounds were administered through intravenous injection to a guinea pig (body weight: 400 - 600 g) anesthetized by administration of sodium pentobarbital, and 2 - 3 μg/kg of histamine was administered through intravenous injection. Inhibitory ratio of increase in air-way resistance was determined by the variant method of Konzett-Rossler method [Archiv fur Experimentelle Pathologie und Pharmakologie, vol. 195, 71 (1940)].

[2] = tested on: bronchodilating activity in presence of a β-adrenergic blocking agent; experiment: Inhibition of the bronchodilating activity by a β-adrenergic blocking agent
[3] = tested on: gastric secretion (stomach of a male rat); experiment: Inhibition of gastric secretion (tetragastrin-stimulated, perfused stomach of anesthetized rat; dose raising perfusate pH by 1.0); assay type: in vivo, Donryu strain); conditions: intravenous administration for 30 minutes; urethane-anesthetized rat; tetragastrine 10 μg/kg/hr
Procedure: The method employed was essentially same as described by M. N. Ghosh and H. O. Schild in British Journal of Pharmacology and Chemotherapy, vol. 13, 54-61 (1958). Through the stomach of a male rat (Donryu strain) anesthetized by administration of urethane was perfused a physiological saline solution containing a small amount of sodium hydroxide at a rate of 1 ml/min. Then 10 μg/kg/hr of a gastric secretion stimulating agent, tetragastrine, was continuously injected into the vein of said rat until pH of the outflowing perfusate reached approximately 3 and said value remained. Thereupon, a certain amount of the test compounds was administered at a certain rate into the vein for 30 minutes, and pH of the outflowing perfusate was measured. The measurement was repeated with variation of the administering amount.

Row | SMILES | ED50 [1] | inhibition of bronchodilating activity by a β-adrenergic blocking agent (in words) [2] | Dose needed to increase the pH of the outflowing perfusate by 1.0 [3]
1 | CCCCC[C@H](O)/C=C/[C@H]1[C@H](O)CC(=O)[C@@H]1C/C=C\CCCC(=O)O [PGE2] | 0.21 µg/kg | – | –
2 | CC(C)(C)NCC(O)c1ccc(O)c(CO)c1 (stereo not shown) [Salbutanol] | – | inhibits | –
3 | CC(C)=CCCC(C)CC(O)/C=C/C1C(O)CC(=O)C1CCCCCCC(=O)O (stereo not drawn) [Compound A, 9-oxo-11α,15α-dihydroxy-17β-methyl-20-isopropylideneprost-13(trans)-enoic acid] | – | – | 0.074 mg/kg/hr
4 | CC(C)NCC(O)c1ccc(O)c(O)c1 (stereo not shown) [Isoproterenol] | – | inhibits | –
5 | CC(C)=CCCC(C)C[C@H](O)/C=C/[C@H]1[C@H](O)CC(=O)[C@@H]1C/C=C\CCCC(=O)O (relative stereo) [Compound B, 9-oxo-11α, 15α-dihydroxy-17β-methyl-20-isopropylideneprost-5-(cis), 13(trans)-dienoic acid] | – | – | 0.070 mg/kg/hr
6 | CCCCC[C@H](O)/C=C/[C@H]1[C@H](O)CC(=O)[C@@H]1CCCCCCC(=O)O [PGE1, prostaglandin E1] | 0.14 µg/kg | – | 0.086 mg/kg/hr

— US4064351A, “9-OXO-15 .xi.-HYDROXY-20-ALKYLIDENEPROST-13(TRANS)-ENOIC ACID DERIVATIVES” (Sankyo Company Limited, priority 1974, dated 1977)
